Measured values taken from patent US20120060243A1, “Herbicide-Resistant AHAS-Mutants and Methods of Use” (priority 2008, published 2012).
Like-named read-outs stand apart in the source and are kept apart here.

Assays:
Assay type in all cases: in vivo, Brassica napus
[1] = tested on: BNCL120C7 (BN-02) (AHASIII A122T); test: Field test herbicide injury, Minot; details: 200 g ai/ha, 15 days after treatment, A122T single mutant BNCL120C7 (BN-02)
From the text: (§1) B. napus plants from the following spring oilseed rape lines: BN-02 (wild type), BN-T (wild type), BnCL131A1 in a BN-02 background genotype (AHAS III A122T S653N double mutant), BnCL120C7 in a BN-02 background genotype (BnAHASIII A122T), BnCL97 in a BN-02 background genotype (BnAHASIII S653N), PM1/PM2 in a BN-T background (two gene check: AHAS I S653N & AHAS III W574L), PM1 in a BN-T background (one gene check: AHAS I S653N) and PM2 in a BN-T background (one gene check: AHAS III W574L) were field tested at a site near Minot, N. Dak. Lines were planted in 5 m long single row plots and arranged in a two factorial split plot design with 3 repetitions and 4 treatments (0 g ai/ha imazamox, 50 g ai/ha imazamox, 100 g ai/ha imazamox and 200 g ai/ha imazamox). Plants were sprayed at the 2-4 leaf stage with the above mentioned imazamox treatments. The imazamox product (Beyond 120 g/L LC+0.25% (v/v) non-ionic surfactant) was diluted in 20 gallons per acre (or 200 liters/ha) and applied using a tractor mounted boom.
(§2) Herbicide injury was evaluated 15 days after treatment (DAT) on a per plot basis using a scale from 0 to 100%, where 0 was no injury and 100% was complete plant death.

[2] = tested on: BnCL97 (BN-02) (AHASIII S653N); test: Field test herbicide injury, Minot; details: 200 g ai/ha, 15 days after treatment, S653N single mutant BnCL97 (BN-02)
From the text: as §1, §2

[3] = tested on: BnCL131A1 (BN-02) (AHAS III A122T, S653N); test: Field test herbicide injury, Minot; details: 200 g ai/ha
From the text: as §1, §2

[4] = tested on: PM2 (AHASL1A-PM2), W574L (Ho); details: 18 Days After Treatment, line PM2 (AHASL1A-PM2); for Mean Percent Crop Phytotoxicity (% Crop Injury): field, 2-4 leaf stage
From the text: (§3) Hand-crossed hybrids were produced in the greenhouse between two IMI-tolerant spring Brassica napus parental lines: “BnCL131A1” (homozygous for the A genome IMI-tolerant mutation AHASL1A-A122(At)T-S653(At)N) and “PM1PM2” (homozygous for the A genome AHAS-inhibitor tolerant mutation AHASL1A-W574(At)L (PM2) plus the C genome AHAS-inhibitor tolerant mutation AHASL1C-S653(At)N(PM1)). The resulting heterozygous hand-crossed hybrid line, “PM1PM2/BnCL131A 1” (heterozygous for the stacked mutations: AHASL1A-A122(At)T-S653(At)N, AHASL1A-W574(At)L (PM2), AHASL1C-S653(At)N(PM1)) was field tested together with lines each containing only one AHAS-inhibitor tolerant mutation (homozygous or heterozygous) and several spring Brassica napus checks.
(§4) The three repetition trial was conducted in Simcoe, N. Dak., and used a randomized split block design. The trial was designed to measure the percent phytotoxicity (% crop injury) of the different entries under 5 different imidazolinone herbicide treatment rates. Plants were sprayed at the 2-4 leaf stage at a volume of 100 liters/ha. The imidazolinone herbicide rates used were as follows (Imazamox=BEYOND™ 120 g/I LC (BAS 72001H); NIS=INDUCE™ 90 (90% non-ionic surfactant; Helena Chemical Co., Collierville, Tenn.):
(§5) Crop Injury Ratings were determined in the field by assessing each plot in the trial for the level of phytotoxicity (percent crop injury) on a scale from 0-100% at 18 days after treatment. Mean values for each entry across the three replications along with their statistical significance (ANOVA) are presented in Table 6 (Ho=homozygous; He=heterozygous). Each value presented in Table 6 is the mean of three replications.
(§6) The percent phytotoxicity (% crop injury) ratings were transposed into Herbicide Tolerance ratings by subtracting the percent crop injury rating (Table 6) for each line from 100% to obtain the percent herbicide tolerance (Table 7) (Ho=homozygous; He=heterozygous).

[5] = tested on: BnCL131A1 (Ho), A122T-S653N (Ho); details: 18 Days After Treatment, line BnCL131A1 (Ho); for Mean Percent Crop Phytotoxicity (% Crop Injury): field, 2-4 leaf stage
From the text: as §3, §4, §5, §6

[6] = tested on: PM1PM2/BnCL131A1, S653N (He), W574L (He)/A122T-S653N (He); details: for Mean Percent Crop Phytotoxicity (% Crop Injury): field, 2-4 leaf stage; for Expected Additive % Herbicide Tolerance: sum of BnCL131A1 (He) + PM2 (AHASL1A-PM2) + PM1 (AHASL1C-PM1)
From the text: as §3, §4, §5, §6

[7] = tested on: AHASL1A-S653N, S653N (Ho); details: 18 Days After Treatment, line AHASL1A-S653N; for Mean Percent Crop Phytotoxicity (% Crop Injury): field, 2-4 leaf stage
From the text: as §3, §4, §5, §6

[8] = mean over 0, 35, 70, 140, 210 g ai/ha (N 15)

In the case of COCc1cnc(C2=NC(C)(C(C)C)C(=O)N2)c(C(=O)O)c1 (centres unmarked) [imazamox], the “amount of tolerance (100% minus crop injury)” value [1] is reported as 20%, the “amount of tolerance (100% minus crop injury)” value [2] is reported as 17% and the “amount of tolerance (100% minus crop injury)” value ([3]; field, 15 days after treatment, double mutant line BnCL131A1 (BN-02)) is reported as 62%. For the same compound, the “expected tolerance if additive (A122T plus S653N)” value ([3]; sum of tolerances of the two single mutant lines) was 37%, the “Mean Percent Crop Phytotoxicity (% Crop Injury)” value ([4]; 35 g ai/ha + 0.25% (v/v) NIS) was 36.67% and the “Mean Percent Herbicide Tolerance (100% minus percent crop injury)” value ([4]; 35 g ai/ha) was 63.3%. The “Mean Percent Crop Phytotoxicity (% Crop Injury)” value ([4]; 70 g ai/ha + 0.25% (v/v) NIS) was 46.67%, the “Mean Percent Herbicide Tolerance (100% minus percent crop injury)” value ([4]; 70 g ai/ha) was 53.3% and the “Mean Percent Crop Phytotoxicity (% Crop Injury)” value ([4]; 140 g ai/ha + 0.25% (v/v) NIS) was 83.33%. For the same compound, the “Mean Percent Herbicide Tolerance (100% minus percent crop injury)” value ([4]; 140 g ai/ha) was 16.7%, the “Mean Percent Crop Phytotoxicity (% Crop Injury)” value ([4]; 210 g ai/ha + 0.25% (v/v) NIS) was 80% and the “Mean Percent Herbicide Tolerance (100% minus percent crop injury)” value ([4]; 210 g ai/ha) was 20.0%. For the same compound, the “Mean Percent Crop Phytotoxicity (% Crop Injury), Mean over rates” value [4, 8] was 49.33%, the “Mean Percent Crop Phytotoxicity (% Crop Injury)” value ([5]; 35 g ai/ha + 0.25% (v/v) NIS) was 16.67% and the “Mean Percent Herbicide Tolerance (100% minus percent crop injury)” value ([5]; 35 g ai/ha) was 83.3%. For the same compound, the “Mean Percent Crop Phytotoxicity (% Crop Injury)” value ([5]; 70 g ai/ha + 0.25% (v/v) NIS) was 31.67%, the “Mean Percent Herbicide Tolerance (100% minus percent crop injury)” value ([5]; 70 g ai/ha) was 68.3% and the “Mean Percent Crop Phytotoxicity (% Crop Injury)” value ([5]; 140 g ai/ha + 0.25% (v/v) NIS) was 43.33%. The “Mean Percent Herbicide Tolerance (100% minus percent crop injury)” value ([5]; 140 g ai/ha) was 56.7%, the “Mean Percent Crop Phytotoxicity (% Crop Injury)” value ([5]; 210 g ai/ha + 0.25% (v/v) NIS) was 55% and the “Mean Percent Herbicide Tolerance (100% minus percent crop injury)” value ([5]; 210 g ai/ha) was 45.0%. The “Mean Percent Crop Phytotoxicity (% Crop Injury), Mean over rates” value [5, 8] was 29.33%, the “Mean Percent Crop Phytotoxicity (% Crop Injury)” value ([6]; 35 g ai/ha + 0.25% (v/v) NIS, 18 Days After Treatment, line PM1PM2/BnCL131A1) was 8.33% and the “Mean Percent Herbicide Tolerance (100% minus percent crop injury)” value ([6]; 35 g ai/ha, 18 Days After Treatment, line PM1PM2/BnCL131A1) was 91.7%. For the same compound, the “Mean Percent Crop Phytotoxicity (% Crop Injury)” value ([6]; 70 g ai/ha + 0.25% (v/v) NIS, 18 Days After Treatment, line PM1PM2/BnCL131A1) was 15%, the “Mean Percent Herbicide Tolerance (100% minus percent crop injury)” value ([6]; 70 g ai/ha, 18 Days After Treatment, line PM1PM2/BnCL131A1) was 85.0% and the “Mean Percent Crop Phytotoxicity (% Crop Injury)” value ([6]; 140 g ai/ha + 0.25% (v/v) NIS, 18 Days After Treatment, line PM1PM2/BnCL131A1) was 21.67%. The “Mean Percent Herbicide Tolerance (100% minus percent crop injury)” value ([6]; 140 g ai/ha, 18 Days After Treatment, line PM1PM2/BnCL131A1) was 78.3%, the “Expected Additive % Herbicide Tolerance” value ([6]; 140 g ai/ha) was 45% and the “Expected Additive % Herbicide Tolerance” value ([6]; 140 g ai/ha, listed as Beyond) was 45.0%. For the same compound, the “Mean Percent Crop Phytotoxicity (% Crop Injury)” value ([6]; 210 g ai/ha + 0.25% (v/v) NIS, 18 Days After Treatment, line PM1PM2/BnCL131A1) was 15%, the “Mean Percent Herbicide Tolerance (100% minus percent crop injury)” value ([6]; 210 g ai/ha, 18 Days After Treatment, line PM1PM2/BnCL131A1) was 85% and the “Mean Percent Herbicide Tolerance (100% minus percent crop injury)” value ([6]; 210 g ai/ha, 18 Days After Treatment, line PM1PM2/BnCL131A1, listed as Beyond) was 85.0%. For the same compound, the “Expected Additive % Herbicide Tolerance” value ([6]; 210 g ai/ha) was 55%, the “Expected Additive % Herbicide Tolerance” value ([6]; 210 g ai/ha, listed as Beyond) was 55.0% and the “Mean Percent Crop Phytotoxicity (% Crop Injury), Mean over rates” value ([6]; mean over 0, 35, 70, 140, 210 g ai/ha (N 15), 18 Days After Treatment, line PM1PM2/BnCL131A1) was 12%. The “Mean Percent Crop Phytotoxicity (% Crop Injury)” value ([7]; 70 g ai/ha + 0.25% (v/v) NIS) was 78.33%, the “Mean Percent Herbicide Tolerance (100% minus percent crop injury)” value ([7]; 70 g ai/ha) was 21.7% and the “Mean Percent Crop Phytotoxicity (% Crop Injury)” value ([7]; 210 g ai/ha + 0.25% (v/v) NIS) was 90%. The “Mean Percent Herbicide Tolerance (100% minus percent crop injury)” value ([7]; 210 g ai/ha) was 10.0% and the “Mean Percent Crop Phytotoxicity (% Crop Injury), Mean over rates” value [7, 8] was 64.33%.
